The values that follow come from patent publication US7345037B2, “Nitrosated and nitrosylated compounds and compositions and their use for treating respiratory disorders” (Nitromed, Inc., priority 1996, dated 2008).

Experiment [1] deals with acute bronchoconstriction and late bronchial obstruction after inhalation challenge with Ascaris Suum. The experiment is described as follows: Ascaris suum-induced immediate and late bronchial response (mean lung resistance sR1) in allergic conscious sheep. The settings on record: for protection of the immediate response / protection of the peak late response: 500 μg aerosolized 30 minutes prior to ascaris suum challenge, referenced to historical controls, n=3. The class given is in vivo. The text has this:
(§1) The measurement of biological activity in a pulmonary model of allergic asthma and lung inflammation was undertaken in adult conscious sheep. The methodology was essentially as described by W. M. Abraham et al. (Bull. Eur. Physiopathol. Respir., 22, 387 (1986)). Adult sheep with a natural cutaneous reaction to Ascaris Suum extract and who respond to inhalation challenge with Ascaris Suum with both an acute bronchoconstriction and a late bronchial obstruction were used in the study.
Unsedated sheep were intubated and measurement of airway mechanics were computed and recorded on a digital computer utilizing inputs of transpulmonary pressure and tracheal airflow recordings. Each animal was exposed to an aerosol of ascaris suum, diluted to produce an immediate and significant increase in mean lung resistance (sR1) of approximately 600-700% above baseline. […] This second response is known as the late response. sR1 returned to baseline by 24 hours. Each animal was exposed to an aerosol of ascaris suum at a minimum of two week interval. […]
(§2) Each test drug was aerosolized to an animal 30 minutes prior to challenge with ascaris suum.

Experiment [2] relates to airway responsiveness to aerosolized carbachol after exposure to ascaris suum. The experiment in a line: Airway responsiveness to aerosolized carbachol (PC150) before and after Ascaris suum challenge in allergic conscious sheep. The class given is in vivo. The settings on record: 500 μg aerosolized, PC150 of carbachol 24 hours prior to and 24 post ascaris suum exposure, closer to unity is better.
Text: as §1
Airway responsiveness was measured by calculation of a PC150 value. The PC150 is the dose of aerosolized carbachol which produces a 150% increase in sR1 above baseline. The doses of carbachol were administered in an ascending dose-response fashion with each dose being administered for a 10 breath duration. The PC150 value was determined for each animal 24 hours prior to exposure to ascaris suum and again 24 post exposure. The difference in PC150 values represented a change in airway responsiveness. The closer the post challenge to prechallenge ratio to unity the better the effect of the particular compound.
as §2

With “6α-Fluoro-11β-hydroxy-16α,17-((1-methylethylidene)bis(oxy))pregna-1,4-diene-3,20-dione-21-(3-methyl-3-nitrosothio)-butanoate [Example 1]”, in experiment [1], the “protection of the immediate response” value turned out to be 59±14% and the “protection of the peak late response” value came out at 89±2%. Further, the “protection against lung function changes due to aerosol challenge of ascaris suum” value in experiment [1] (overall comparison with the parent steroid) is recorded as “better protection”. Also, the “post challenge/prechallenge ratio of PC150 values (airway hyperresponsiveness)” value in experiment [2] stood at 1.18±0.06.

For `CC1(C)O[C@@H]2C[C@H]3[C@@H]4C[C@H](F)C5=CC(=O)C=C[C@]5(C)[C@H]4[C@@H](O)C[C@]3(C)[C@]2(C(=O)CO)O1` [6α-Fluoro-11β, 21-dihydroxy-16α, 17α-((1-methylethylidene)bis(oxy))pregna-1,4-diene-3,20-dione, reference compound], in experiment [1], the “protection of the immediate response” value amounted to 16±21% and the “protection of the peak late response” value worked out at 83±7%. In experiment [2], the “post challenge/prechallenge ratio of PC150 values (airway hyperresponsiveness)” value came to 0.98±0.10.
